Key:
Test in all cases: relative viability (nuclei count vs DMSO), 5 days (fraction); higher = more cells survive
EHT 1864 + Palbociclib = compound: C1COCCN1CC2=CC(=O)C(=CO2)OCCCCCSC3=C4C=CC(=CC4=NC=C3)C(F)(F)F [EHT 1864] + CC(=O)c1c(C)c2cnc(Nc3ccc(N4CCNCC4)cn3)nc2n(C2CCCC2)c1=O [Palbociclib] (partner 0.5 µM)
How it was run: (§1)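 Lung cancer cell lines in 1536-well plates were dosed by pin tool the day after seeding, either with one drug alone or with a fixed anchor-drug dose plus five library-drug doses (not always all listed) in √10 steps. After 5 days, cells were fixed and their nuclei stained in one step (final 0.05% Triton X-100, 1% formaldehyde, 1 ug/ml Hoechst), then counted on 4× images. Relative viability is the nuclei count in treated wells divided by that in vehicle wells. Values are medians of duplicate plates.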

EHT 1864 + Pemetrexed = compound: C1COCCN1CC2=CC(=O)C(=CO2)OCCCCCSC3=C4C=CC(=CC4=NC=C3)C(F)(F)F [EHT 1864] + Nc1nc2[nH]cc(CCc3ccc(C(=O)N[C@@H](CCC(=O)O)C(=O)O)cc3)c2c(=O)[nH]1 [Pemetrexed] (partner 0.2 µM)
How it was run: as §1

EHT 1864 + Vorinostat = compound: C1COCCN1CC2=CC(=O)C(=CO2)OCCCCCSC3=C4C=CC(=CC4=NC=C3)C(F)(F)F [EHT 1864] + O=C(CCCCCCC(=O)Nc1ccccc1)NO [Vorinostat] (partner 1 µM)
How it was run: as §1

EHT 1864 + Dasatinib = compound: C1COCCN1CC2=CC(=O)C(=CO2)OCCCCCSC3=C4C=CC(=CC4=NC=C3)C(F)(F)F [EHT 1864] + Cc1nc(Nc2ncc(C(=O)Nc3c(C)cccc3Cl)s2)cc(N2CCN(CCO)CC2)n1 [Dasatinib] (partner 0.075 µM)
How it was run: as §1

**Q.** For RERF-LC-KJ, which relative viability (EHT 1864 + Palbociclib; first compound 0.04 µM) is on record?
**A.** 1.09

**Q.** What about the relative viability (EHT 1864 + Palbociclib; first compound 0.1265 µM) of the same cell line?
**A.** 0.989

**Q.** And the relative viability (EHT 1864 + Palbociclib; first compound 0.4 µM)?
**A.** 0.929

**Q.** And the relative viability (EHT 1864 + Palbociclib; first compound 1.265 µM)?
**A.** 1.02

**Q.** What about the relative viability (EHT 1864 + Palbociclib; first compound 4 µM) of the same cell line?
**A.** 1.11

**Q.** And the relative viability (EHT 1864 + Pemetrexed; first compound 0.04 µM)?
**A.** 0.46

**Q.** What about the relative viability (EHT 1864 + Pemetrexed; first compound 0.1265 µM) of the same cell line?
**A.** 0.443

**Q.** What about the relative viability (EHT 1864 + Pemetrexed; first compound 0.4 µM) of the same cell line?
**A.** 0.484

**Q.** And the relative viability (EHT 1864 + Pemetrexed; first compound 1.265 µM)?
**A.** 0.462

**Q.** And the relative viability (EHT 1864 + Pemetrexed; first compound 4 µM)?
**A.** 0.504

**Q.** What about the relative viability (EHT 1864 + Vorinostat; first compound 0.04 µM) of the same cell line?
**A.** 0.676

**Q.** What about the relative viability (EHT 1864 + Vorinostat; first compound 0.1265 µM) of the same cell line?
**A.** 0.585

**Q.** And the relative viability (EHT 1864 + Vorinostat; first compound 0.4 µM)?
**A.** 0.69

**Q.** And the relative viability (EHT 1864 + Vorinostat; first compound 1.265 µM)?
**A.** 0.735

**Q.** What about the relative viability (EHT 1864 + Vorinostat; first compound 4 µM) of the same cell line?
**A.** 0.718

**Q.** What about the relative viability (EHT 1864 + Dasatinib; first compound 0.04 µM) of the same cell line?
**A.** 0.825

**Q.** What about the relative viability (EHT 1864 + Dasatinib; first compound 0.1265 µM) of the same cell line?
**A.** 0.793

**Q.** What about the relative viability (EHT 1864 + Dasatinib; first compound 0.4 µM) of the same cell line?
**A.** 0.795

**Q.** And the relative viability (EHT 1864 + Dasatinib; first compound 1.265 µM)?
**A.** 0.772

**Q.** And the relative viability (EHT 1864 + Dasatinib; first compound 4 µM)?
**A.** 0.682

**Q.** What does the source list for SK-LU-1?
**A.** relative viability (EHT 1864 + Palbociclib; first compound 0.04 µM): 0.474; relative viability (EHT 1864 + Palbociclib; first compound 0.1265 µM): 0.323; relative viability (EHT 1864 + Palbociclib; first compound 0.4 µM): 0.395; relative viability (EHT 1864 + Palbociclib; first compound 1.265 µM): 0.37; relative viability (EHT 1864 + Palbociclib; first compound 4 µM): 0.352; relative viability (EHT 1864 + Pemetrexed; first compound 0.04 µM): 0.982; relative viability (EHT 1864 + Pemetrexed; first compound 0.1265 µM): 0.935; relative viability (EHT 1864 + Pemetrexed; first compound 0.4 µM): 1.03; relative viability (EHT 1864 + Pemetrexed; first compound 1.265 µM): 0.872; relative viability (EHT 1864 + Pemetrexed; first compound 4 µM): 0.901; relative viability (EHT 1864 + Vorinostat; first compound 0.04 µM): 0.81; relative viability (EHT 1864 + Vorinostat; first compound 0.1265 µM): 0.726; relative viability (EHT 1864 + Vorinostat; first compound 0.4 µM): 0.725; relative viability (EHT 1864 + Vorinostat; first compound 1.265 µM): 0.707; relative viability (EHT 1864 + Vorinostat; first compound 4 µM): 0.679; relative viability (EHT 1864 + Dasatinib; first compound 0.04 µM): 0.186; relative viability (EHT 1864 + Dasatinib; first compound 0.1265 µM): 0.171; relative viability (EHT 1864 + Dasatinib; first compound 0.4 µM): 0.174; relative viability (EHT 1864 + Dasatinib; first compound 1.265 µM): 0.174; relative viability (EHT 1864 + Dasatinib; first compound 4 µM): 0.164

**Q.** SK-MES-1 was tested. Which relative viability (EHT 1864 + Palbociclib; first compound 0.04 µM) did it give?
**A.** 0.379

**Q.** What about the relative viability (EHT 1864 + Palbociclib; first compound 0.1265 µM) of the same cell line?
**A.** 0.3

**Q.** What about the relative viability (EHT 1864 + Palbociclib; first compound 0.4 µM) of the same cell line?
**A.** 0.356

**Q.** And the relative viability (EHT 1864 + Palbociclib; first compound 1.265 µM)?
**A.** 0.301

**Q.** And the relative viability (EHT 1864 + Palbociclib; first compound 4 µM)?
**A.** 0.342

**Q.** What about the relative viability (EHT 1864 + Pemetrexed; first compound 0.04 µM) of the same cell line?
**A.** 0.93

**Q.** What about the relative viability (EHT 1864 + Pemetrexed; first compound 0.1265 µM) of the same cell line?
**A.** 0.852

**Q.** And the relative viability (EHT 1864 + Pemetrexed; first compound 0.4 µM)?
**A.** 0.857

**Q.** And the relative viability (EHT 1864 + Pemetrexed; first compound 1.265 µM)?
**A.** 0.882

**Q.** And the relative viability (EHT 1864 + Pemetrexed; first compound 4 µM)?
**A.** 0.85

**Q.** And the relative viability (EHT 1864 + Vorinostat; first compound 0.04 µM)?
**A.** 1.1

**Q.** What about the relative viability (EHT 1864 + Vorinostat; first compound 0.1265 µM) of the same cell line?
**A.** 0.983

**Q.** And the relative viability (EHT 1864 + Vorinostat; first compound 0.4 µM)?
**A.** 1.1

**Q.** What about the relative viability (EHT 1864 + Vorinostat; first compound 1.265 µM) of the same cell line?
**A.** 1.1

**Q.** And the relative viability (EHT 1864 + Vorinostat; first compound 4 µM)?
**A.** 1.03

**Q.** What about the relative viability (EHT 1864 + Dasatinib; first compound 0.04 µM) of the same cell line?
**A.** 0.427

**Q.** And the relative viability (EHT 1864 + Dasatinib; first compound 0.1265 µM)?
**A.** 0.409

**Q.** And the relative viability (EHT 1864 + Dasatinib; first compound 0.4 µM)?
**A.** 0.44

**Q.** What about the relative viability (EHT 1864 + Dasatinib; first compound 1.265 µM) of the same cell line?
**A.** 0.423

**Q.** What about the relative viability (EHT 1864 + Dasatinib; first compound 4 µM) of the same cell line?
**A.** 0.333

**Q.** How did the relative viability (EHT 1864 + Palbociclib; first compound 0.04 µM) turn out when SW 900 was run?
**A.** 0.515

**Q.** And the relative viability (EHT 1864 + Palbociclib; first compound 0.4 µM)?
**A.** 0.586

**Q.** And the relative viability (EHT 1864 + Palbociclib; first compound 1.265 µM)?
**A.** 0.573

**Q.** What about the relative viability (EHT 1864 + Palbociclib; first compound 4 µM) of the same cell line?
**A.** 0.498

**Q.** And the relative viability (EHT 1864 + Pemetrexed; first compound 0.04 µM)?
**A.** 0.477

**Q.** And the relative viability (EHT 1864 + Pemetrexed; first compound 0.4 µM)?
**A.** 0.463

**Q.** What about the relative viability (EHT 1864 + Pemetrexed; first compound 1.265 µM) of the same cell line?
**A.** 0.473

**Q.** And the relative viability (EHT 1864 + Pemetrexed; first compound 4 µM)?
**A.** 0.446

**Q.** What about the relative viability (EHT 1864 + Vorinostat; first compound 0.04 µM) of the same cell line?
**A.** 0.54

**Q.** And the relative viability (EHT 1864 + Vorinostat; first compound 0.4 µM)?
**A.** 0.531

**Q.** What about the relative viability (EHT 1864 + Vorinostat; first compound 1.265 µM) of the same cell line?
**A.** 0.589

**Q.** And the relative viability (EHT 1864 + Vorinostat; first compound 4 µM)?
**A.** 0.467

**Q.** And the relative viability (EHT 1864 + Dasatinib; first compound 0.04 µM)?
**A.** 0.809

**Q.** What about the relative viability (EHT 1864 + Dasatinib; first compound 0.4 µM) of the same cell line?
**A.** 0.684

**Q.** And the relative viability (EHT 1864 + Dasatinib; first compound 1.265 µM)?
**A.** 1.02

**Q.** What about the relative viability (EHT 1864 + Dasatinib; first compound 4 µM) of the same cell line?
**A.** 0.552

**Q.** How did the relative viability (EHT 1864 + Palbociclib; first compound 0.04 µM) turn out when SW 1573 was run?
**A.** 0.299

**Q.** What about the relative viability (EHT 1864 + Palbociclib; first compound 0.4 µM) of the same cell line?
**A.** 0.481

**Q.** What about the relative viability (EHT 1864 + Palbociclib; first compound 1.265 µM) of the same cell line?
**A.** 0.416

**Q.** And the relative viability (EHT 1864 + Palbociclib; first compound 4 µM)?
**A.** 0.317

**Q.** And the relative viability (EHT 1864 + Pemetrexed; first compound 0.04 µM)?
**A.** 0.737

**Q.** And the relative viability (EHT 1864 + Pemetrexed; first compound 0.4 µM)?
**A.** 0.78

**Q.** And the relative viability (EHT 1864 + Pemetrexed; first compound 1.265 µM)?
**A.** 0.869

**Q.** What about the relative viability (EHT 1864 + Pemetrexed; first compound 4 µM) of the same cell line?
**A.** 0.775

**Q.** What about the relative viability (EHT 1864 + Vorinostat; first compound 0.04 µM) of the same cell line?
**A.** 0.922

**Q.** What about the relative viability (EHT 1864 + Vorinostat; first compound 0.4 µM) of the same cell line?
**A.** 0.674

**Q.** And the relative viability (EHT 1864 + Vorinostat; first compound 1.265 µM)?
**A.** 1.07

**Q.** And the relative viability (EHT 1864 + Vorinostat; first compound 4 µM)?
**A.** 0.671

**Q.** And the relative viability (EHT 1864 + Dasatinib; first compound 0.04 µM)?
**A.** 0.516

**Q.** What about the relative viability (EHT 1864 + Dasatinib; first compound 0.1265 µM) of the same cell line?
**A.** 0.362

**Q.** What about the relative viability (EHT 1864 + Dasatinib; first compound 0.4 µM) of the same cell line?
**A.** 0.445

**Q.** What about the relative viability (EHT 1864 + Dasatinib; first compound 1.265 µM) of the same cell line?
**A.** 0.538

**Q.** And the relative viability (EHT 1864 + Dasatinib; first compound 4 µM)?
**A.** 0.516

**Q.** Which results are given for UMC-11?
**A.** relative viability (EHT 1864 + Palbociclib; first compound 0.04 µM): 0.339; relative viability (EHT 1864 + Palbociclib; first compound 0.1265 µM): 0.266; relative viability (EHT 1864 + Palbociclib; first compound 0.4 µM): 0.281; relative viability (EHT 1864 + Palbociclib; first compound 1.265 µM): 0.343; relative viability (EHT 1864 + Palbociclib; first compound 4 µM): 0.31; relative viability (EHT 1864 + Pemetrexed; first compound 0.04 µM): 0.763; relative viability (EHT 1864 + Pemetrexed; first compound 0.1265 µM): 0.706; relative viability (EHT 1864 + Pemetrexed; first compound 0.4 µM): 0.843; relative viability (EHT 1864 + Pemetrexed; first compound 1.265 µM): 0.764; relative viability (EHT 1864 + Pemetrexed; first compound 4 µM): 0.888; relative viability (EHT 1864 + Vorinostat; first compound 0.04 µM): 0.372; relative viability (EHT 1864 + Vorinostat; first compound 0.1265 µM): 0.482; relative viability (EHT 1864 + Vorinostat; first compound 0.4 µM): 0.41; relative viability (EHT 1864 + Vorinostat; first compound 1.265 µM): 0.398; relative viability (EHT 1864 + Vorinostat; first compound 4 µM): 0.534; relative viability (EHT 1864 + Dasatinib; first compound 0.04 µM): 0.462; relative viability (EHT 1864 + Dasatinib; first compound 0.1265 µM): 0.449; relative viability (EHT 1864 + Dasatinib; first compound 1.265 µM): 0.441; relative viability (EHT 1864 + Dasatinib; first compound 4 µM): 0.458
